Data on 27 compounds can be found in US20220340875A1, “METHODS OF CULTURING AND/OR EXPANDING STEM CELLS AND/OR LINEAGE COMMITTED PROGENITOR CELLS USING AMIDO COMPOUNDS” (IDEAYA BIOSCIENCES, INC., priority 2018, published 2022).

SMILES strings stand for the structures. A value given as a limit tells only on which side of the number the result lay.

This test addresses T1, hAhR (Homo sapiens, UniProt P35869).
T1 construct: Stably integrated DRE-luciferase cell lines were generated by transducing the both cell lines with Cignal XRE luciferase reporter (Qiagen) lentiviral particles; endogenous in cells
T1 sequence (P35869 11-848): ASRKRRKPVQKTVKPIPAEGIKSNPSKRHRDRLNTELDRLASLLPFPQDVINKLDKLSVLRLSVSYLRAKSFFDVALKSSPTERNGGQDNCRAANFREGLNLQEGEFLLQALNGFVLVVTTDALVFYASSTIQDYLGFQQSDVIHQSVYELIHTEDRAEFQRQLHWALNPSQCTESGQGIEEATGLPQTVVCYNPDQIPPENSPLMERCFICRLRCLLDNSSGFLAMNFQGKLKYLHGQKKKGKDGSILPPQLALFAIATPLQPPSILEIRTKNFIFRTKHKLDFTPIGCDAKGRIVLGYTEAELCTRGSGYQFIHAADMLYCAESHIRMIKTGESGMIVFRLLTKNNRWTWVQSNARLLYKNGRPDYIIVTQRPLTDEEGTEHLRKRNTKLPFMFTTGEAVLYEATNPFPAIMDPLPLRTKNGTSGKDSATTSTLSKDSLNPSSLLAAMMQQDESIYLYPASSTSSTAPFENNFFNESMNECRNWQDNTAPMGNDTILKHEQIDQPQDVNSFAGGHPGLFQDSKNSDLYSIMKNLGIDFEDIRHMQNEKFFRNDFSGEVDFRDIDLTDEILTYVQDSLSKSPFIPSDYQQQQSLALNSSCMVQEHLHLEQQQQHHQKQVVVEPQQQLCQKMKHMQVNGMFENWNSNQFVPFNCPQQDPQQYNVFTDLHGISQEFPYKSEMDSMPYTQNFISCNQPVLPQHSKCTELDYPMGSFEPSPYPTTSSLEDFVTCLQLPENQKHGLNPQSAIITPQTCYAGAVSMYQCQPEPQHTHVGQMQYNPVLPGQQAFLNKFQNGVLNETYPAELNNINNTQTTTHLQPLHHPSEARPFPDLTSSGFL
Nature of the test: AhR DRE-luciferase reporter transcriptional assay, antagonist mode (TCDD-induced). The format is cell-based. The settings on record: HEPG2 DRE-Luc cells, 3 nM TCDD, 24 hour incubation, relative IC50. The method in brief: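 HepG2 cells carrying a stably integrated DRE-luciferase reporter, in OptiMEM with 0.5% FBS; semi-log compound doses added with 3 nM TCDD, 24 h incubation, firefly luciferase read-out. Percent maximal activity normalised between vehicle ± TCDD; relative IC50 taken as half-reduction between curve plateaus.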
Consider `Cc1cc(-c2ncc3cc(C(F)(F)F)ccc3n2)ccc1NC(=O)c1ccnc(C(N)=O)c1` [Example 151, N4-(2-methyl-4-(6-(trifluoromethyl)quinazolin-2-yl)phenyl)pyridine-2,4-dicarboxamide], for which the IC50 was below 0.2 µM. The same measure for `Cc1cc(-c2nc3cc(C(F)(F)F)ccc3s2)ccc1NC(=O)c1ccnn1C` [Example 100, 1-methyl-N-(2-methyl-4-(5-(trifluoromethyl)benzo[d]thiazol-2-yl)phenyl)-1H-pyrazole-5-carboxamide]: 0.2 to 0.5 µM.

Compound `Cc1cc(-c2ccc3cc(F)ccc3n2)cnc1NC(=O)c1ccnn1C` [Example 042, N-(5-(6-fluoroquinolin-2-yl)-3-methylpyridin-2-yl)-1-methyl-1H-pyrazole-5-carboxamide] came in with an IC50 of 0.5 to 1 µM.

Compound `Cc1cc(-c2nc3cc(F)ccc3s2)ccc1NC(=O)c1ccnn1C` [Example 099, N-(4-(5-fluorobenzo[d]thiazol-2-yl)-2-methylphenyl)-1-methyl-1H-pyrazole-5-carboxamide] gave an IC50 below 0.2 µM. The same measure for `Cn1nccc1C(=O)Nc1ccc(-c2ccc3cc(F)ccc3n2)cc1F` [Example 066, N-(2-fluoro-4-(6-fluoroquinolin-2-yl)phenyl)-1-methyl-1H-pyrazole-5-carboxamide]: 0.5 to 1 µM. As to `Cc1cc(N(C)C(=O)c2ccnn2C)ccc1-c1ncc2nc(C(F)(F)F)ccc2n1` [Example 187, N,1-dimethyl-N-(3-methyl-4-(6-(trifluoromethyl)pyrido[3,2-d]pyrimidin-2-yl)phenyl)-1H-pyrazole-5-carboxamide], the IC50 is below 0.2 µM. The same measure for `Cc1cc(-c2ncc3cc(C(F)(F)F)ccc3n2)ccc1N(C)C(=O)c1ncccc1C` [Example 118, N,3-dimethyl-N-(2-methyl-4-(6-(trifluoromethyl)quinazolin-2-yl)phenyl)picolinamide]: 0.2 to 0.5 µM.

With `Cc1cc(-c2nc3ccc(F)cc3s2)ccc1NC(=O)c1ccnn1C` [Example 098, N-(4-(6-fluorobenzo[d]thiazol-2-yl)-2-methylphenyl)-1-methyl-1H-pyrazole-5-carboxamide], the IC50 lay in the range of 1 to 10 µM.

With `Cc1cc(-c2ccc3cc(C(F)(F)F)ccc3n2)ccc1NC(=O)C(F)(F)F` [Example 080, 2,2,2-trifluoro-N-(2-methyl-4-(6-(trifluoromethyl)quinolin-2-yl)phenyl)acetamide], the IC50 was in the range of 1 to 10 µM.

For `Cc1cc(-c2ccc3nc(C(F)(F)F)ncc3n2)ccc1NC(=O)c1ccnn1C` [Example 139, 1-methyl-N-(2-methyl-4-(2-(trifluoromethyl)pyrido[3,2-d]pyrimidin-6-yl)phenyl)-1H-pyrazole-5-carboxamide], the IC50 fell in the range of 0.5 to 1 µM. The same measure for `Cc1cc(-c2ccc3cc(F)ccc3n2)ccc1NC(=O)c1nccn1C` [Example 033, N-(4-(6-fluoroquinolin-2-yl)-2-methylphenyl)-1-methyl-1H-imidazole-2-carboxamide]: 0.2 to 0.5 µM; for `Cc1cc(-c2ncc3ccc(C(F)(F)F)cc3n2)ccc1NC(=O)c1ccnn1C` [Example 108, 1-methyl-N-(2-methyl-4-(7-(trifluoromethyl)quinazolin-2-yl)phenyl)-1H-pyrazole-5-carboxamide]: below 0.2 µM. `Cc1cc(-c2ccc3cnccc3n2)ccc1NC(=O)c1ccnn1C` [Example 013, 1-methyl-N-(2-methyl-4-(1,6-naphthyridin-2-yl)phenyl)-1H-pyrazole-5-carboxamide]: the IC50 was 1 to 10 µM. The value for `Cc1cc(-c2ccc3cc(F)ccc3n2)ccc1NC(=O)c1cccnc1` [Example 027, N-(4-(6-fluoroquinolin-2-yl)-2-methylphenyl)nicotinamide] was 0.5 to 1 µM.

Take `Cc1cc(-c2ncc3cc(C(F)(F)F)ccc3n2)ccc1N(C)C(=O)c1ccnn1Cc1nnn[nH]1` [Example 158, 1-((1H-tetrazol-5-yl)methyl)-N-methyl-N-(2-methyl-4-(6-(trifluoromethyl)-quinazolin-2-yl)phenyl)-1H-pyrazole-5-carboxamide]: the half-maximal inhibitory concentration (IC50) lay in the range of 1 to 10 µM. The same measure for `Cc1cc(N(C)C(=O)c2ccnn2C)c(F)cc1-c1ncc2nc(C(F)(F)F)cc(C)c2n1` [Example 179, N-(2-fluoro-5-methyl-4-(8-methyl-6-(trifluoromethyl)pyrido[3,2-d]pyrimidin-2-yl)phenyl)-N,1-dimethyl-1H-pyrazole-5-carboxamide]: 0.2 to 0.5 µM; for `Cc1cc(-c2ccc3cc(F)ccc3n2)ccc1NC(=O)c1ccccc1` [Example 023, N-(4-(6-fluoroquinolin-2-yl)-2-methylphenyl)benzamide]: 0.5 to 1 µM; for `Cc1cc(NC(=O)c2c(C)cnn2C)c(F)cc1-c1ccc2cc(C(F)(F)F)ccc2n1` [Example 207, N-(2-fluoro-5-methyl-4-(6-(trifluoromethyl)quinolin-2-yl)phenyl)-1,4-dimethyl-1H-pyrazole-5-carboxamide]: 0.2 to 0.5 µM. The same measure for `Cc1cc(-c2ccc3cc(F)ccc3n2)ccc1NC(=O)c1ccncc1` [Example 028, N-(4-(6-fluoroquinolin-2-yl)-2-methylphenyl)isonicotinamide]: 0.5 to 1 µM; for `CN(C(=O)c1ccnn1C)c1ccc(-c2ncc3nc(C(F)(F)F)ccc3n2)cc1F` [Example 138, N-(2-fluoro-4-(6-(trifluoromethyl)pyrido[3,2-d]pyrimidin-2-yl)phenyl)-N,1-dimethyl-1H-pyrazole-5-carboxamide]: below 0.2 µM; for `C#Cc1ccc2nc(-c3ccc(NC(=O)c4ccnn4C)c(C)c3)ccc2c1` [Example 072, N-(4-(6-ethynylquinolin-2-yl)-2-methylphenyl)-1-methyl-1H-pyrazole-5-carboxamide]: 0.2 to 0.5 µM. The value for `Cc1cc(-c2ccc3cc(OC(F)(F)F)ccc3n2)ccc1NC(=O)c1ccnn1C` [Example 011, 1-methyl-N-(2-methyl-4-(6-(trifluoromethoxy)quinolin-2-yl)phenyl)-1H-pyrazole-5-carboxamide] was 0.2 to 0.5 µM; that for `Cc1cc(-c2ncc3nc(C(F)(F)F)cc(C)c3n2)ccc1N(C)C(=O)c1ccnn1CCO` [Example 173, 1-(2-hydroxyethyl)-N-methyl-N-(2-methyl-4-(8-methyl-6-(trifluoromethyl)-pyrido[3,2-d]pyrimidin-2-yl)phenyl)-1H-pyrazole-5-carboxamide] was below 0.2 µM; that for `Cc1cc(-c2ncc3nc(C(F)(F)F)ccc3n2)ccc1NC(=O)c1ccnn1CC(C)O` (stereo not drawn) [Example 193, 1-(2-hydroxypropyl)-N-(2-methyl-4-(6-(trifluoromethyl)pyrido[3,2-d]pyrimidin-2-yl)phenyl)-1H-pyrazole-5-carboxamide] was 0.5 to 1 µM. The compound `Cc1cnccc1C(=O)N(C)c1ccc(-c2ncc3cc(C(F)(F)F)ccc3n2)cc1C` [Example 122, N,3-dimethyl-N-(2-methyl-4-(6-(trifluoromethyl)quinazolin-2-yl)phenyl)isonicotinamide] came in with an IC50 below 0.2 µM. The value for `Cc1cc(-c2ccc3ccn(C)c3c2)ccc1NC(=O)c1ccnn1C` [Example 082, 1-Methyl-N-(2-methyl-4-(1-methyl-1H-indol-6-yl)phenyl)-1H-pyrazole-5-carboxamide] was 0.5 to 1 µM; that for `Cc1cc(-c2ccc3c(ccn3C)n2)ccc1NC(=O)c1ccnn1C` [Example 085, 1-methyl-N-(2-methyl-4-(1-methyl-1H-pyrrolo[3,2-b]pyridin-5-yl)phenyl)-1H-pyrazole-5-carboxamide] was 1 to 10 µM.
